Test results: patent US20030176503A1, “Treating hepatitis C viral infections with thiosemicarbazone compounds” (priority 2001, published 2003)

Columns and labels:
Huh7_HBI10A cells = experiment: Cytotoxicity assay (SRB); format: cell-based, human; conditions: at 40 μM
Description: About 5000 Huh7_HBI10A cells, resuspended in 100 μL of complete DMEM were seeded into each well of a 96 well microtiter plate (Falcon sterile by Becton Dickinson) and incubated (37° C., 5% CO2) for 24 hours. The medium was removed and the cells were fixed by incubation with 50 μL of 50% TCA for 1 hour at 4° C., 200 μL of ice-cold isopropanol 100% for 20 minutes at 4° C., or 100 μL of 10% paraformaldehyde for 20 minutes at room temperature. The plate was washed with water when either TCA or paraformaldehyde was used to fix the cells and with PBS 1× when isopropanol was used to fix the cells. All washings were run 3 times. After drying the plate, 200 μL of SRB 1× solution (prepared fresh from a SRB solution 10×: 4% sulforhodamine B (Sigma) in 10% acetic acid) was added to each well and incubated for 30 minutes at room temperature. The SRB 1× solution was removed by inversion and the plate was washed in 1% acetic acid 3 times. To each well was added 200 μL of 10 mM Tris pH 10.5, the plate was shaken till the color of the solution in the wells was uniform, and the plate was read in a conventional ELISA plate reader set at 570 nm.

[1] = tested on: HCV replication in Huh7_HBI10A cells containing a HCV-replicon; experiment: RHEPLISA assay, cell-based assay for measuring HCV replication (NS3 ELISA); parameters: species or system hepatitis C virus; conditions: at 40 μM
Description: A cell-based assay for measuring the HCV replication (RHEPLISA) was developed in a 96-well microplate format. The assay utilizes Huh-7 cellular clone (Huh7_HBI10A) containing a HCV-replicon and is based on the detection of the viral NS3 protein by ELISA. About 5000 Huh7_HBI10A cells (or Huh-7 cells as negative control), resuspended in 100 μL of complete DMEM were seeded into each well of a 96 well microtiter plate (Falcon sterile by Becton Dickinson). After 4 hours, 50 μL of an appropriate dissolution medium (e.g., DMEM) containing the compounds to test or DMSO (3%) were added, and incubated (37° C., 5% CO2) for 4 days. The medium was removed by inversion and the cells were fixed by addition of 200 μ/well of ice-cold isopropanol 100%. […]
When secondary antibody AP-conjugated was used, 100 μL of AP substrate (SIGMA 104 Phosphatase substrate tablets; i.e., one tablet in 5 ml of AP buffer: diethanolamine solution 10%, pH 9.6-9.8.) were added to each well, and the plate was read in a conventional ELISA plate reader set at 405-620 nm.
When peroxidase-conjugated secondary was used, 100 μL of TMB substrate (SIGMA) were added to each well, and the plate was incubated for 20′ in the dark. 50 μL of 0.5M H2SO4 were then added, and the plate was read in a conventional ELISA plate reader set at 450-620 nm.

NC(=S)NN=Cc1ccccc1 [benzaldehyde thiosemicarbazone]
cytotoxic inhibition (Huh7_HBI10A cells): no cytotoxic inhibition | anti-HCV activity in the RHEPLISA assay [1]: no anti-HCV activity
